Organism: Rattus norvegicus
Assay: DrugMatrix - Regimen: Daily Repeat
Format: toxicity, organism-based, Sprague-Dawley
Design: regimen Daily Repeat, gender Male, age 6-8 weeks
Conditions: in vivo, po, route oral GAVAGE, vehicle .5 % CMC; for BASOPHIL / EOSINOPHIL / ERYTHROCYTE COUNT / HEMATOCRIT / HEMOGLOBIN / LEUKOCYTE COUNT / LYMPHOCYTE / MEAN CORPUSCULAR HEMOGLOBIN / MEAN CORPUSCULAR HEMOGLOBIN CONCENTRATION / MEAN CORPUSCULAR VOLUME / MONOCYTE / NEUTROPHIL / PLATELET COUNT: tissue Blood; for ALANINE AMINOTRANSFERASE / ALBUMIN / ALKALINE PHOSPHATASE / ASPARTATE AMINOTRANSFERASE / BLOOD UREA NITROGEN / CHLORIDE / CHOLESTEROL / CREATINE PHOSPHOKINASE / CREATININE / GLUCOSE / PHOSPHORUS / POTASSIUM / SODIUM / TOTAL PROTEIN: tissue Plasma
[1] = 0 mg/kg, 72 h, dose level Control, time 3 day
[2] = 0 mg/kg, 120 h, dose level Control, time 5 day
[3] = 80 mg/kg, 72 h, dose level Low, time 3 day
[4] = 80 mg/kg, 120 h, dose level Low, time 5 day
[5] = 2000 mg/kg, 72 h, dose level High, time 3 day
[6] = 2000 mg/kg, 120 h, dose level High, time 5 day

With `CN(C/C=C/C#CC(C)(C)C)Cc1cccc2ccccc12` [TERBINAFINE] the BASOPHIL [1] was 0%, the EOSINOPHIL [1] was 0.4% and the “ERYTHROCYTE COUNT” value [1] was 6.43 x10E6/uL. The HEMATOCRIT [1] was 37.36%, the HEMOGLOBIN [1] was 13.98 G/DL and the “LEUKOCYTE COUNT” value [1] was 13 x10E3/uL. For the same compound, the LYMPHOCYTE [1] was 81.4%, the “MEAN CORPUSCULAR HEMOGLOBIN” value [1] was 21.9 pg and the “MEAN CORPUSCULAR HEMOGLOBIN CONCENTRATION” value [1] was 37.4 G/DL. The “MEAN CORPUSCULAR VOLUME” value [1] was 58.52 fL, the MONOCYTE [1] was 0.4% and the NEUTROPHIL [1] was 18%. For the same compound, the “PLATELET COUNT” value [1] was 1386 x10E3/uL, the “ALANINE AMINOTRANSFERASE” value [1] was 39.33 u/L and the ALBUMIN [1] was 3.57 G/DL. The “ALKALINE PHOSPHATASE” value [1] was 283.83 u/L, the “ASPARTATE AMINOTRANSFERASE” value [1] was 69.5 u/L and the “BLOOD UREA NITROGEN” value [1] was 14.83 mg/dL. The CHLORIDE [1] was 107.33 MEQ/L, the CHOLESTEROL [1] was 75.17 mg/dL and the “CREATINE PHOSPHOKINASE” value [1] was 107.67 u/L. For the same compound, the CREATININE [1] was 0.48 mg/dL, the GLUCOSE [1] was 172.5 mg/dL and the PHOSPHORUS [1] was 10.48 mg/dL. For the same compound, the POTASSIUM [1] was 6.9 MEQ/L, the SODIUM [1] was 152.33 MEQ/L and the “TOTAL PROTEIN” value [1] was 5.9 G/DL. For the same compound, the BASOPHIL [2] was 0%, the EOSINOPHIL [2] was 0.4% and the “ERYTHROCYTE COUNT” value [2] was 6.96 x10E6/uL. The HEMATOCRIT [2] was 41.12%, the HEMOGLOBIN [2] was 15.24 G/DL and the “LEUKOCYTE COUNT” value [2] was 11.06 x10E3/uL. The LYMPHOCYTE [2] was 88.6%, the “MEAN CORPUSCULAR HEMOGLOBIN” value [2] was 21.96 pg and the “MEAN CORPUSCULAR HEMOGLOBIN CONCENTRATION” value [2] was 37.1 G/DL. The “MEAN CORPUSCULAR VOLUME” value [2] was 59.12 fL, the MONOCYTE [2] was 0.2% and the NEUTROPHIL [2] was 10.8%. The “PLATELET COUNT” value [2] was 1155.8 x10E3/uL, the “ALANINE AMINOTRANSFERASE” value [2] was 36.33 u/L and the ALBUMIN [2] was 3.72 G/DL. The “ALKALINE PHOSPHATASE” value [2] was 340.33 u/L, the “ASPARTATE AMINOTRANSFERASE” value [2] was 68.33 u/L and the “BLOOD UREA NITROGEN” value [2] was 15 mg/dL. The CHLORIDE [2] was 108.17 MEQ/L, the CHOLESTEROL [2] was 74.67 mg/dL and the “CREATINE PHOSPHOKINASE” value [2] was 110.67 u/L. For the same compound, the CREATININE [2] was 0.47 mg/dL, the GLUCOSE [2] was 171.33 mg/dL and the PHOSPHORUS [2] was 10.05 mg/dL. The POTASSIUM [2] was 6.7 MEQ/L, the SODIUM [2] was 155.5 MEQ/L and the “TOTAL PROTEIN” value [2] was 6.33 G/DL. The BASOPHIL [3] was 0%, the EOSINOPHIL [3] was 0.33% and the “ERYTHROCYTE COUNT” value [3] was 6.8 x10E6/uL. The HEMATOCRIT [3] was 41.03%, the HEMOGLOBIN [3] was 15.13 G/DL and the “LEUKOCYTE COUNT” value [3] was 14.73 x10E3/uL. For the same compound, the LYMPHOCYTE [3] was 86.67%, the “MEAN CORPUSCULAR HEMOGLOBIN” value [3] was 22.37 pg and the “MEAN CORPUSCULAR HEMOGLOBIN CONCENTRATION” value [3] was 36.9 G/DL. For the same compound, the “MEAN CORPUSCULAR VOLUME” value [3] was 60.57 fL, the MONOCYTE [3] was 0.33% and the NEUTROPHIL [3] was 12.67%. For the same compound, the “PLATELET COUNT” value [3] was 1306.67 x10E3/uL, the “ALANINE AMINOTRANSFERASE” value [3] was 36 u/L and the ALBUMIN [3] was 3.5 G/DL. For the same compound, the “ALKALINE PHOSPHATASE” value [3] was 332 u/L, the “ASPARTATE AMINOTRANSFERASE” value [3] was 55.67 u/L and the “BLOOD UREA NITROGEN” value [3] was 12.67 mg/dL. The CHLORIDE [3] was 110.33 MEQ/L, the CHOLESTEROL [3] was 64 mg/dL and the “CREATINE PHOSPHOKINASE” value [3] was 119.33 u/L. The CREATININE [3] was 0.57 mg/dL, the GLUCOSE [3] was 180.67 mg/dL and the PHOSPHORUS [3] was 10.6 mg/dL. The POTASSIUM [3] was 7.07 MEQ/L, the SODIUM [3] was 155.67 MEQ/L and the “TOTAL PROTEIN” value [3] was 5.87 G/DL. The BASOPHIL [4] was 0%, the EOSINOPHIL [4] was 0.33% and the “ERYTHROCYTE COUNT” value [4] was 5.98 x10E6/uL. For the same compound, the HEMATOCRIT [4] was 35.23%, the HEMOGLOBIN [4] was 12.83 G/DL and the “LEUKOCYTE COUNT” value [4] was 13.7 x10E3/uL. For the same compound, the LYMPHOCYTE [4] was 85.33%, the “MEAN CORPUSCULAR HEMOGLOBIN” value [4] was 21.47 pg and the “MEAN CORPUSCULAR HEMOGLOBIN CONCENTRATION” value [4] was 36.4 G/DL. For the same compound, the “MEAN CORPUSCULAR VOLUME” value [4] was 58.97 fL, the MONOCYTE [4] was 0% and the NEUTROPHIL [4] was 14%. The “PLATELET COUNT” value [4] was 1155 x10E3/uL, the “ALANINE AMINOTRANSFERASE” value [4] was 39 u/L and the ALBUMIN [4] was 3.43 G/DL. For the same compound, the “ALKALINE PHOSPHATASE” value [4] was 357.33 u/L, the “ASPARTATE AMINOTRANSFERASE” value [4] was 60.33 u/L and the “BLOOD UREA NITROGEN” value [4] was 13.33 mg/dL. The CHLORIDE [4] was 106.67 MEQ/L, the CHOLESTEROL [4] was 67.33 mg/dL and the “CREATINE PHOSPHOKINASE” value [4] was 121.67 u/L. It also gave a CREATININE [4] of 0.47 mg/dL, a GLUCOSE [4] of 151.33 mg/dL and a PHOSPHORUS [4] of 9.77 mg/dL. For the same compound, the POTASSIUM [4] was 6.7 MEQ/L, the SODIUM [4] was 151.33 MEQ/L and the “TOTAL PROTEIN” value [4] was 5.73 G/DL. The BASOPHIL [5] was 0%, the EOSINOPHIL [5] was 0% and the “ERYTHROCYTE COUNT” value [5] was 6.96 x10E6/uL. For the same compound, the HEMATOCRIT [5] was 41.1%, the HEMOGLOBIN [5] was 15.27 G/DL and the “LEUKOCYTE COUNT” value [5] was 8.67 x10E3/uL. For the same compound, the LYMPHOCYTE [5] was 76.67%, the “MEAN CORPUSCULAR HEMOGLOBIN” value [5] was 21.9 pg and the “MEAN CORPUSCULAR HEMOGLOBIN CONCENTRATION” value [5] was 37.13 G/DL. For the same compound, the “MEAN CORPUSCULAR VOLUME” value [5] was 58.93 fL, the MONOCYTE [5] was 0% and the NEUTROPHIL [5] was 23.33%. The “PLATELET COUNT” value [5] was 1235.33 x10E3/uL, the “ALANINE AMINOTRANSFERASE” value [5] was 55.67 u/L and the ALBUMIN [5] was 3.63 G/DL. The “ALKALINE PHOSPHATASE” value [5] was 246.33 u/L, the “ASPARTATE AMINOTRANSFERASE” value [5] was 120.33 u/L and the “BLOOD UREA NITROGEN” value [5] was 11.33 mg/dL. The CHLORIDE [5] was 108.67 MEQ/L, the CHOLESTEROL [5] was 105.33 mg/dL and the “CREATINE PHOSPHOKINASE” value [5] was 122 u/L. It also gave a CREATININE [5] of 0.5 mg/dL, a GLUCOSE [5] of 140.67 mg/dL and a PHOSPHORUS [5] of 10.4 mg/dL. The POTASSIUM [5] was 6.3 MEQ/L, the SODIUM [5] was 156.33 MEQ/L and the “TOTAL PROTEIN” value [5] was 5.9 G/DL. For the same compound, the BASOPHIL [6] was 0%, the EOSINOPHIL [6] was 0.33% and the “ERYTHROCYTE COUNT” value [6] was 6.14 x10E6/uL. The HEMATOCRIT [6] was 37.1%, the HEMOGLOBIN [6] was 13.7 G/DL and the “LEUKOCYTE COUNT” value [6] was 6.8 x10E3/uL. For the same compound, the LYMPHOCYTE [6] was 87.33%, the “MEAN CORPUSCULAR HEMOGLOBIN” value [6] was 22.37 pg and the “MEAN CORPUSCULAR HEMOGLOBIN CONCENTRATION” value [6] was 36.9 G/DL. For the same compound, the “MEAN CORPUSCULAR VOLUME” value [6] was 60.57 fL, the MONOCYTE [6] was 0% and the NEUTROPHIL [6] was 12.33%. For the same compound, the “PLATELET COUNT” value [6] was 1319.67 x10E3/uL, the “ALANINE AMINOTRANSFERASE” value [6] was 37.67 u/L and the ALBUMIN [6] was 3.6 G/DL. For the same compound, the “ALKALINE PHOSPHATASE” value [6] was 327.67 u/L, the “ASPARTATE AMINOTRANSFERASE” value [6] was 56 u/L and the “BLOOD UREA NITROGEN” value [6] was 12 mg/dL. For the same compound, the CHLORIDE [6] was 106.33 MEQ/L, the CHOLESTEROL [6] was 84.67 mg/dL and the “CREATINE PHOSPHOKINASE” value [6] was 117.33 u/L. It also gave a CREATININE [6] of 0.53 mg/dL, a GLUCOSE [6] of 141 mg/dL and a PHOSPHORUS [6] of 10.63 mg/dL. The POTASSIUM [6] was 6.4 MEQ/L, the SODIUM [6] was 152 MEQ/L and the “TOTAL PROTEIN” value [6] was 5.73 G/DL.

— ChEMBL document CHEMBL3885881, “DrugMatrix”
